Test results taken from ChEMBL document CHEMBL1938244, “Synthesis, anticancer activity and apoptosis inducing ability of bisindole linked pyrrolo[2,1-c][1,4]benzodiazepine conjugates” (2012).
Active and inactive are the calls of the source. The calls are words filed in the database; no cut-off is given here.

Legend:
[1] = test system: MCF7; experiment: Induction of cell cycle arrest in human MCF7 cells assessed as accumulation of cells in G2/M phase at 2 uM after 24 hrs by flow cytometry (reference value: 36.23%); assay type: functional
[2] = test system: MCF7; experiment: Induction of apoptosis in human MCF7 cells assessed as PARP-cleavage at 8 uM after 24 hrs by Western blot analysis; assay type: functional, cell-based
[3] = test system: MCF7; experiment: Induction of cell cycle arrest in human MCF7 cells assessed as accumulation of cells in G1 phase at 4 uM after 24 hrs by flow cytometry (reference value: 65.58%); assay type: functional
[4] = test system: MCF7; experiment: Increase in p21 protein level in human MCF7 cells at 2 uM after 24 hrs by Western blotting; assay type: functional, cell-based
[5] = test system: MCF7; experiment: Induction of apoptosis in human MCF7 cells assessed as caspase-7 activation at 8 uM after 24 hrs by Western blot analysis; assay type: functional, cell-based
[6] = test system: SiHa; experiment: Anticancer activity against human SiHa cells by SRB method; assay type: functional
[7] = test system: MCF7; experiment: Inhibition of HDAC1 protein expression in human MCF7 cells at 2 uM after 24 hrs by Western blotting; assay type: functional, cell-based
[8] = test system: MCF7; experiment: Induction of cell cycle arrest in human MCF7 cells assessed as accumulation of cells in G1 phase at 4 uM after 24 hrs by flow cytometry relative to untreated control; assay type: functional
[9] = test system: MCF7; experiment: Induction of cell cycle arrest in human MCF7 cells assessed as accumulation of cells in G2/M phase at 2 uM after 24 hrs by flow cytometry relative to untreated control; assay type: functional
[10] = test system: MCF7; experiment: Induction of cell cycle arrest in human MCF7 cells assessed as accumulation of cells in S phase at 8 uM after 24 hrs by flow cytometry relative to untreated control; assay type: functional
[11] = test system: MCF7; experiment: Inhibition of HDAC8 protein expression in human MCF7 cells at 2 uM after 24 hrs by Western blotting; assay type: functional, cell-based
[12] = test system: MCF7; experiment: Anticancer activity against human MCF7 cells by SRB method; assay type: functional
[13] = test system: MCF7; experiment: Induction of cell cycle arrest in human MCF7 cells assessed as accumulation of cells in S phase at 2 uM after 24 hrs by flow cytometry relative to untreated control; assay type: functional
[14] = test system: MCF7; experiment: Induction of cell cycle arrest in human MCF7 cells assessed as accumulation of cells in S phase at 4 uM after 24 hrs by flow cytometry relative to untreated control; assay type: functional
[15] = test system: MCF7; experiment: Induction of cell cycle arrest in human MCF7 cells assessed as accumulation of cells in G2/M phase at 8 uM after 24 hrs by flow cytometry (reference value: 25.65%); assay type: functional
[16] = test system: A2780; experiment: Anticancer activity against human A2780 cells by SRB method; assay type: functional
[17] = test system: MCF7; experiment: Induction of cell cycle arrest in human MCF7 cells assessed as accumulation of cells in S phase at 8 uM after 24 hrs by flow cytometry (reference value: 5.55%); assay type: functional
[18] = test system: ZR-75-1; experiment: Anticancer activity against human ZR-75-1 cells by SRB method; assay type: functional
[19] = test system: MCF7; experiment: Induction of cell cycle arrest in human MCF7 cells assessed as accumulation of cells in S phase at 2 uM after 24 hrs by flow cytometry (reference value: 14.87%); assay type: functional
[20] = test system: MCF7; experiment: Induction of cell cycle arrest in human MCF7 cells assessed as accumulation of cells in G1 phase at 8 uM after 24 hrs by flow cytometry relative to untreated control; assay type: functional
[21] = test system: MCF7; experiment: Induction of cell cycle arrest in human MCF7 cells assessed as accumulation of cells in G0 phase at 4 uM after 24 hrs by flow cytometry relative to untreated control; assay type: functional
[22] = test system: MCF7; experiment: Induction of cell cycle arrest in human MCF7 cells assessed as accumulation of cells in G2/M phase at 8 uM after 24 hrs by flow cytometry relative to untreated control; assay type: functional
[23] = test system: MCF7; experiment: Induction of cell cycle arrest in human MCF7 cells assessed as accumulation of cells in G1 phase at 8 uM after 24 hrs by flow cytometry (reference value: 65.58%); assay type: functional
[24] = test system: MCF7; experiment: Induction of cell cycle arrest in human MCF7 cells assessed as accumulation of cells in G0 phase at 8 uM after 24 hrs by flow cytometry (reference value: 3.22%); assay type: functional
[25] = test system: MCF7; experiment: Induction of cell cycle arrest in human MCF7 cells assessed as accumulation of cells in G0 phase at 2 uM after 24 hrs by flow cytometry (reference value: 2.9%); assay type: functional
[26] = test system: MCF7; experiment: Inhibition of HDAC2 protein expression in human MCF7 cells at 2 uM after 24 hrs by Western blotting; assay type: functional, cell-based
[27] = test system: MCF7; experiment: Induction of cell cycle arrest in human MCF7 cells assessed as accumulation of cells in G1 phase at 2 uM after 24 hrs by flow cytometry relative to untreated control; assay type: functional
[28] = test system: MCF7; experiment: Induction of cell cycle arrest in human MCF7 cells assessed as accumulation of cells in G2/M phase at 4 uM after 24 hrs by flow cytometry (reference value: 25.65%); assay type: functional
[29] = test system: KB; experiment: Anticancer activity against human KB cells by SRB method; assay type: functional
[30] = test system: MCF7; experiment: Induction of cell cycle arrest in human MCF7 cells assessed as accumulation of cells in G0 phase at 2 uM after 24 hrs by flow cytometry relative to untreated control; assay type: functional
[31] = test system: A549; experiment: Anticancer activity against human A549 cells by SRB method; assay type: functional
[32] = molecular target: Tubulin (Homo sapiens) (UniProt P68371+Q9H4B7+P0DPH7+P68366+Q13509+Q71U36+P04350+Q3ZCM7+P07437+P68363+Q9BQE3+Q6PEY2+Q13885+Q9BVA1+Q9BUF5); experiment: Inhibition of tubulin polymerization in human MCF7 cells at 2 uM after 24 hrs by FITC-conjugated immunostaining assay; assay type: cell-based
[33] = test system: MCF7; experiment: Induction of cell cycle arrest in human MCF7 cells assessed as accumulation of cells in G1 phase at 2 uM after 24 hrs by flow cytometry (reference value: 46%); assay type: functional
[34] = test system: MCF7; experiment: Induction of cell cycle arrest in human MCF7 cells assessed as accumulation of cells in G2/M phase at 4 uM after 24 hrs by flow cytometry relative to untreated control; assay type: functional
[35] = test system: MCF7; experiment: Anticancer activity against human MCF7 cells assessed as cell death at 2 uM after 24 hrs by MTT assay; assay type: functional
[36] = test system: MCF7; experiment: Induction of cell cycle arrest in human MCF7 cells assessed as accumulation of cells in G0 phase at 4 uM after 24 hrs by flow cytometry (reference value: 3.22%); assay type: functional
[37] = test system: MCF7; experiment: Induction of cell cycle arrest in human MCF7 cells assessed as accumulation of cells in S phase at 4 uM after 24 hrs by flow cytometry (reference value: 5.55%); assay type: functional
[38] = test system: MCF7; experiment: Inhibition of HDAC3 protein expression in human MCF7 cells at 2 uM after 24 hrs by Western blotting; assay type: functional, cell-based
[39] = test system: MCF7; experiment: Induction of cell cycle arrest in human MCF7 cells assessed as accumulation of cells in G0 phase at 8 uM after 24 hrs by flow cytometry relative to untreated control; assay type: functional
[40] = test system: COLO 205; experiment: Anticancer activity against human COLO205 cells by SRB method; assay type: functional

**Q.** What does the source list for `COc1cc2c(cc1OCCCCCOc1ccc(C(c3c[nH]c4ccccc34)c3c[nH]c4ccccc34)cc1)N=C[C@@H]1CCCN1C2=O`?
**A.** Activity [1]: 45.19%; Activity [2]: Active; Activity [3]: 68.23%; Activity [4]: Active; Activity [5]: Active; GI50 [6]: 180 nM; inhibition [7]: Active; Activity [8]: 68.33%; Activity [9]: 46.67%; Activity [10]: 2.32%; inhibition [11]: Active; GI50 [12]: 140 nM; Activity [13]: 9.08%; Activity [14]: 6.95%; Activity [15]: 1.75%; GI50 [16]: 110 nM; Activity [17]: 2.04%; GI50 [18]: 120 nM; Activity [19]: 9.34%; Activity [20]: 46.11%; Activity [21]: 16.11%; Activity [22]: 1.41%; Activity [23]: 44.26%; Activity [24]: 51.96%; Activity [25]: 3.96%; inhibition [26]: Active; Activity [27]: 40.67%; Activity [28]: 8.35%; GI50 [29]: 130 nM; Activity [30]: 3.57%; GI50 [31]: 2400 nM; inhibition [32]: Active; Activity [33]: 41.51%; Activity [34]: 8.6%; Activity [35]: 50%; Activity [36]: 16.45%; Activity [37]: 6.97%; inhibition [38]: Active; Activity [39]: 50.15%; GI50 [40]: 26.1 µM
